Values of other authors in patent publication US5883103A, “Oral acyclovir delivery” (priority 1995, dated 1999).

Experiments:
[1] = system: cellular α-DNA polymerase; conditions: compared with viral DNA polymerase
[2] = system: herpes simplex types 2 (HSV-2)
[3] = system: herpes simplex types I (HSV-1)
[4] = system: herpes simplex virus (HSV), cytomegalovirus (CMV) and varicella-zoster
varicella-zoster = conditions: in vivo
[5] = system: thymidine kinase (TK) expressed by uninfected normal cells
[6] = system: TK encoded by HSV, varicella zoster, and EBV
[7] = oral

Nc1nc2c(ncn2COCCOP(=O)(O)OP(=O)(O)OP(=O)(O)O)c(=O)[nH]1 [Acyclovir triphosphate]
effect on cellular α-DNA polymerase [1]: to a lesser degree | effect on viral DNA polymerase (viral DNA polymerase): interferes with viral DNA polymerase

Nc1nc2c(ncn2COCCO)c(=O)[nH]1 [acyclovir, 2-amino-1,9-dihydro-9-[(2-hydroxy-ethoxy)methyl]-6H-purin-6-one]
inhibition of HSV-2 [2]: inhibits | inhibition of HSV-1 [3]: inhibits | safety and efficacy in treatment of viral disease ([4]; immunocompromised and immunocompetent patients): safe and effective | suppression of reactivated or newly acquired viral diseases ([4]; oral administration, genital herpes simplex, shingles, acute varicella-zoster): suppression of reactivated or newly acquired viral diseases | morbidity and mortality from viral disease ([4]; pre- and postoperative prophylaxis, long-term (>6 months) oral): reduced | effect on symptoms of acute varicella-zoster disease (varicella-zoster): reduces fever, chronic pain, the progression of rash and accelerates cutaneous healing | substrate for TK of uninfected normal cells [5]: not a substrate | conversion by viral TK [6]: converts acyclovir into acyclovir monophosphate | absorption [7]: slowly and erratically absorbed | bioavailability [7]: 15-30% | toxicity in vitro for uninfected normal cells (uninfected normal cells): much less toxic in vitro for uninfected normal cells | inhibition of EBV (Epstein-Barr virus (EBV)): inhibits | inhibition of CMV (cytomegalovirus (CMV)): inhibits | inhibition of varicella zoster (varicella zoster): inhibits
